Laboratory results published in patent US20240082414A1, “HUMAN TUMOR NECROSIS FACTOR ALPHA ANTIBODY GLUCOCORTICOID CONJUGATES” (Eli Lilly and Company, priority 2022, published 2024).

System: anti-drug antibodies against adalimumab
Assay: ACE-Bridge binding to cynomolgus monkey anti-drug antibodies against adalimumab
Conditions: FIG. 3; AP-HIMS from monkeys hyperimmunized with adalimumab; bridging with the labeled test antibody
Method: Example 5a. […] The anti-adalimumab antibodies were detected using a titration of AP-HIMS in an ACE-Bridge assay. The assay was developed following the FDA Guidance on Immunogenicity testing. […] The following day, plates were washed three times with TBST and the captured anti-adalimumab antibodies were acid eluted using 65 μL/well of 300 mM acetic acid (Fisher Scientific, A38-500) for 5 min at room temperature. […] Next, 50 μL of the acid eluted samples were added to the polypropylene plate containing the mixture in neutralizing buffer and the ADA and were allowed to bridge to the labeled antibodies for 1 h at room temperature. MSD Gold 96-well streptavidin plates (Mesoscale, L15SA-1) were washed and blocked with TBS+1% BSA for 1 h at room temperature, then washed, and 80 μL of bridged samples were added to the plate for 1 h. The plates were washed three times with TBST, and 150 μL/well of 2×MSD Buffer (Mesoscale, R92TC-2) was added to the plates. Plates were read on an MSD SQ120 reader to provide the Tier 1 signal expressed as electro chemiluminescent units (ECLU).
The resulting ECLU signal was then plotted as a function of the concentration of AP-HIMS tested.

adalimumab: other anti-TNFα therapeutic antibody [reference compound]
maximum ECLU signal: 40000 ECLU
